Results reported in patent publication US20220257619A1, “LONG-ACTING FORMULATIONS OF TENOFOVIR ALAFENAMIDE” (Gilead Sciences, Inc., priority 2019, published 2022).
Values after ≈ are worked out from the molar mass of the structure shown. Where two headings read alike, the source gives them in different places. Marks after values point to notes of the source that are not given here.

Key:
physchem = details: 37 °C, organic solvent or mixture, thermodynamic from solid
[1] = solvent BB, 37° C., asterisk: taken at 4 days, as opposed to 5 days

Compound	Solubility (mg/mL, Calculated as Free Base Equivalent) [1]	solubility at 1 day (physchem; ACN) [mg/mL]	solubility at 5 days (physchem; ACN) [mg/mL]	solubility at 1 day (physchem; DCM) [mg/mL]	solubility at 5 days (physchem; DCM) [mg/mL]	solubility at 1 day (physchem; DMSO) [mg/mL]	solubility at 5 days (physchem; DMSO) [mg/mL]	solubility at 1 day (physchem; NMP) [mg/mL]	solubility at 5 days (physchem; NMP) [mg/mL]	solubility at 1 day (physchem; PC) [mg/mL]	solubility at 5 days (physchem; PC) [mg/mL]	Solubility (mg/mL, Calculated as Free Base Equivalent) (solvent ACN, 37° C./5 days) [mg/mL]	Solubility (mg/mL, Calculated as Free Base Equivalent) (solvent DCM, 37° C./5 days) [mg/mL]	Solubility (mg/mL, Calculated as Free Base Equivalent) (solvent DMSO, 37° C./5 days) [mg/mL]	Solubility (mg/mL, Calculated as Free Base Equivalent) (solvent NMP, 37° C./5 days) [mg/mL]	Solubility (mg/mL, Calculated as Free Base Equivalent) (solvent PC, 37° C./5 days) [mg/mL]
CC(C)OC(=O)[C@H](C)N[P@](=O)(CO[C@H](C)Cn1cnc2c(N)ncnc21)Oc1ccccc1 [TAF Free base, (S)-isopropyl-2-(((S)-((((R)-1-(6-amino-9H-purin-9-yl)propan-2-yl)oxy)methyl)(phenoxy)phosphoryl)amino)propanoate]	5.0 mg/mL	15 (≈ 31.5 mM)	13 (≈ 27.3 mM)	146 (≈ 306 mM)	384 (≈ 806 mM)	96 (≈ 201 mM)	182 (≈ 382 mM)	96 (≈ 201 mM)	161 (≈ 338 mM)	15 (≈ 31.5 mM)	26 (≈ 54.6 mM)	–	–	–	–	–
tenofovir alafenamide hemifumarate [TAF Hemifumarate]	3.9* mg/mL	–	–	–	–	–	–	–	–	–	–	11	97	132	160	22
